Assays:
EKVX (NSC lung cancer) = assay: NCI-60 screen (SRB, 48 h); settings: Homo sapiens; for IC (TGI): 48 h, read-out: TGI
K-562 (Leukemia) = assay: NCI-60 screen (SRB, 48 h); settings: Homo sapiens
T-47D (Breast cancer) = assay: NCI-60 screen (SRB, 48 h); settings: Homo sapiens, T47D; for IC (TGI): 48 h, read-out: TGI
PC-3 (Prostate cancer) = assay: NCI-60 screen (SRB, 48 h); settings: Homo sapiens; for GI50: PC-3; for IC (TGI): PC-3, 48 h, read-out: TGI
786-0 (Renal cancer) = assay: NCI-60 screen (SRB, 48 h); settings: Homo sapiens; for GI50: 786-0; for IC (TGI): 786-0, 48 h, read-out: TGI
SK-MEL-2 (Melanoma) = assay: NCI-60 screen (SRB, 48 h); settings: Homo sapiens; for GI50: SK-MEL-2; for IC (TGI): SK-MEL-2, 48 h, read-out: TGI; for CC50: SK-MEL-2, read-out: LC50
KM12 (Colon cancer) = assay: NCI-60 screen (SRB, 48 h); settings: Homo sapiens; for GI50: KM12; for IC (TGI): KM12, 48 h, read-out: TGI
Prostate cancer subpanel = assay: NCI-60 screen, subpanel; settings: Homo sapiens; for IC (TGI): 48 h, read-out: TGI MG_MID; for GI50: read-out: GI50 MG_MID
[1] = system: A549/ATCC (NSC lung cancer); assay: NCI-60 screen (SRB, 48 h); settings: Homo sapiens; for GI50: A549; for IC (TGI): A549, 48 h, read-out: TGI
Renal Cancer subpanel = assay: NCI-60 screen, subpanel; settings: Homo sapiens; for IC (TGI): 48 h, read-out: TGI MG_MID; for GI50: read-out: GI50 MG_MID; for CC50: read-out: LC50 MG_MID
NSC lung cancer subpanel = assay: NCI-60 screen, subpanel; settings: Homo sapiens; for IC (TGI): 48 h, read-out: TGI MG_MID; for GI50: read-out: GI50 MG_MID; for CC50: read-out: LC50 MG_MID
RPMI-8226 (Leukemia) = assay: NCI-60 screen (SRB, 48 h); settings: Homo sapiens; for GI50: RPMI-8226; for IC (TGI): RPMI-8226, 48 h, read-out: TGI
IGROV1 (Ovarian cancer) = assay: NCI-60 screen (SRB, 48 h); settings: Homo sapiens; for GI50: IGROV-1; for IC (TGI): IGROV-1, 48 h, read-out: TGI
SK-OV-3 (Ovarian cancer) = assay: NCI-60 screen (SRB, 48 h); settings: Homo sapiens; for GI50: SK-OV-3; for IC (TGI): SK-OV-3, 48 h, read-out: TGI
[2] = system: NCI-H522 (NSC lung cancer); assay: NCI-60 screen (SRB, 48 h); settings: Homo sapiens; for GI50: NCI-H522; for IC (TGI): NCI-H522, 48 h, read-out: TGI
UO-31 (Renal cancer) = assay: NCI-60 screen (SRB, 48 h); settings: Homo sapiens; for GI50: UO-31; for IC (TGI): UO-31, 48 h, read-out: TGI
CAKI-1 (Renal cancer) = assay: NCI-60 screen (SRB, 48 h); settings: Homo sapiens; for GI50: CAKI-1; for IC (TGI): CAKI-1, 48 h, read-out: TGI; for CC50: CAKI-1, read-out: LC50
[3] = system: HT29 (colorectal carcinoma); assay: SRB cytotoxicity assay, 72 h; type: cell-based, human; settings: Homo sapiens, HT-29; HT29, 72 h, cut-off 30 µM; read-out: EC50
Experimental: (§1) The cytotoxicity of compounds 1–20 was evaluated by means of a colorimetric sulforhodamine B (SRB) assay. For all compounds, the EC50 values were determined for the human tumor cell lines A375 (malignant melanoma), HT29 (colorectal carcinoma), MCF-7 (breast carcinoma), A2780 (ovarian carcinoma), FaDu (hypopharyngeal carcinoma), and NIH 3T3 (non-malignant mouse fibroblasts).
(§2) In short, exponentially growing cells were seeded into 96-well plates on day 0 at the appropriate cell densities to prevent confluence of the cells during the period of experiment. After 24 h, the cells were treated with serial dilutions of the compounds (0–30 µM) for 72 h. The final concentration of DMSO never exceeded 0.5%, which was non-toxic to the cells. After a 72 h treatment, the supernatant medium from the 96-well plates was discarded, and the cells were fixed with 10% TCA. For a thorough fixation, the plates were allowed to rest at 4 °C. After fixation, the cells were washed in a strip washer. The washing was done four times with water using alternate dispensing and aspiration procedures. The plates were then dyed with 100 µL of 0.4% SRB for about 20 min. After dying, the plates were washed with 1% acetic acid to remove the excess of the dye and allowed to air-dry overnight. Tris base solution (200 µL, 10 mM) was added to each well and absorbance was measured at λ = 570 nm (using a 96 well plate reader, Tecan Spectra, Crailsheim, Germany). The percentages of surviving cells relative to untreated controls were determined.

[4] = system: A375 (malignant melanoma); assay: SRB cytotoxicity assay, 72 h; type: cell-based, human; settings: Homo sapiens, A-375, 72 h, A375, 72 h, cut-off 30 µM; read-out: EC50
Experimental: as §1, §2

[5] = system: FaDu (hypopharyngeal carcinoma); assay: SRB cytotoxicity assay, 72 h; type: cell-based, human; settings: Homo sapiens, cut-off 30 µM, read-out: EC50
Experimental: as §1, §2

[6] = system: A2780 (ovarian carcinoma); assay: SRB cytotoxicity assay, 72 h; type: cell-based, human; settings: Homo sapiens; A2780, 72 h, cut-off 30 µM; read-out: EC50
Experimental: as §1, §2

UACC-62 (Melanoma) = assay: NCI-60 screen (SRB, 48 h); settings: Homo sapiens; for GI50: UACC-62; for IC (TGI): UACC-62, 48 h, read-out: TGI; for CC50: UACC-62, read-out: LC50
RXF 393 (Renal cancer) = assay: NCI-60 screen (SRB, 48 h); settings: Homo sapiens; for GI50: RXF 393; for IC (TGI): RXF 393, 48 h, read-out: TGI
CCRF-CEM (Leukemia) = assay: NCI-60 screen (SRB, 48 h); settings: Homo sapiens

CC(C)=C1CCC=C2CC[C@]3(C)[C@H](CC[C@@H]4[C@@]5(C)CCCNC(C)(C)[C@@H]5CC[C@]43C)[C@H]21 [Compound 9]
GI50 (EKVX (NSC lung cancer)): 1.74 µM
IC (TGI) (EKVX (NSC lung cancer)): 3.38 µM
CC50 (EKVX (NSC lung cancer); read-out: LC50): 6.56 µM
GI50 (K-562 (Leukemia); K562): 1.25 µM
IC (TGI) (K-562 (Leukemia); K562, 48 h, read-out: TGI): 3.5 µM
GI50 (T-47D (Breast cancer)): 1.63 µM
IC (TGI) (T-47D (Breast cancer)): 3.46 µM
GI50 (PC-3 (Prostate cancer)): 1.58 µM
IC (TGI) (PC-3 (Prostate cancer)): 3.02 µM
CC50 (PC-3 (Prostate cancer); PC-3, read-out: LC50): 5.78 µM
GI50 (786-0 (Renal cancer)): 1.71 µM
IC (TGI) (786-0 (Renal cancer)): 3.48 µM
GI50 (SK-MEL-2 (Melanoma)): 1.81 µM
IC (TGI) (SK-MEL-2 (Melanoma)): 3.48 µM
CC50 (SK-MEL-2 (Melanoma)): 6.69 µM
GI50 (KM12 (Colon cancer)): 1.92 µM
IC (TGI) (KM12 (Colon cancer)): 3.42 µM
IC (TGI) (Prostate cancer subpanel): 3.29 µM
GI50 (Prostate cancer subpanel): 1.78 µM
CC50 (Prostate cancer subpanel; read-out: LC50 MG_MID): 6.08 µM
GI50 [1]: 1.79 µM
IC (TGI) [1]: 3.52 µM
IC (TGI) (Renal Cancer subpanel): 3.25 µM
GI50 (Renal Cancer subpanel): 1.72 µM
CC50 (Renal Cancer subpanel): 6.03 µM
IC (TGI) (NSC lung cancer subpanel): 3.27 µM
GI50 (NSC lung cancer subpanel): 1.68 µM
CC50 (NSC lung cancer subpanel): 6.11 µM
GI50 (RPMI-8226 (Leukemia)): 2.06 µM
IC (TGI) (RPMI-8226 (Leukemia)): 4.1 µM
GI50 (IGROV1 (Ovarian cancer)): 1.73 µM
IC (TGI) (IGROV1 (Ovarian cancer)): 3.27 µM
GI50 (SK-OV-3 (Ovarian cancer)): 1.89 µM
IC (TGI) (SK-OV-3 (Ovarian cancer)): 3.5 µM
CC50 (SK-OV-3 (Ovarian cancer); SK-OV-3, read-out: LC50): 6.46 µM
GI50 [2]: 1.8 µM
IC (TGI) [2]: 3.44 µM
GI50 (UO-31 (Renal cancer)): 1.47 µM
IC (TGI) (UO-31 (Renal cancer)): 2.82 µM
CC50 (UO-31 (Renal cancer); UO-31, read-out: LC50): 5.42 µM
GI50 (CAKI-1 (Renal cancer)): 1.69 µM
IC (TGI) (CAKI-1 (Renal cancer)): 3.05 µM
CC50 (CAKI-1 (Renal cancer)): 5.53 µM
EC50 [3]: 1.18 ± 0.1 µM
EC50 [4]: 1.71 ± 0.1 µM
EC50 [5]: 1.58 ± 0.2 µM
EC50 [6]: 2.19 ± 0.1 µM
GI50 (UACC-62 (Melanoma)): 1.77 µM
IC (TGI) (UACC-62 (Melanoma)): 3.22 µM
CC50 (UACC-62 (Melanoma)): 5.85 µM
GI50 (RXF 393 (Renal cancer)): 1.61 µM
IC (TGI) (RXF 393 (Renal cancer)): 3.1 µM
CC50 (RXF 393 (Renal cancer); RXF 393, read-out: LC50): 5.98 µM

C=C(C)[C@@H]1CC[C@]2(C(=O)N[C@H](CO)Cc3ccccc3)CC[C@]3(C)[C@H](CC[C@@H]4[C@@]5(C)CCCNC(C)(C)[C@@H]5CC[C@]43C)[C@@H]12 [Compound 11]
GI50 (EKVX (NSC lung cancer)): 1.73 µM
IC (TGI) (EKVX (NSC lung cancer)): 3.49 µM
GI50 (T-47D (Breast cancer)): 1.8 µM
IC (TGI) (T-47D (Breast cancer)): 4.02 µM
GI50 (PC-3 (Prostate cancer)): 1.16 µM
IC (TGI) (PC-3 (Prostate cancer)): 2.62 µM
GI50 (786-0 (Renal cancer)): 0.4 µM
IC (TGI) (786-0 (Renal cancer)): 1.6 µM
GI50 (SK-MEL-2 (Melanoma)): 1.72 µM
IC (TGI) (SK-MEL-2 (Melanoma)): 3.18 µM
CC50 (SK-MEL-2 (Melanoma)): 5.87 µM
GI50 (KM12 (Colon cancer)): 1.47 µM
IC (TGI) (KM12 (Colon cancer)): 2.91 µM
CC50 (KM12 (Colon cancer); KM12, read-out: LC50): 5.78 µM
IC (TGI) (Prostate cancer subpanel): 2.75 µM
GI50 (Prostate cancer subpanel): 1.32 µM
GI50 (CCRF-CEM (Leukemia)): 0.25 µM
IC (TGI) (CCRF-CEM (Leukemia); 48 h, read-out: TGI): 0.74 µM
GI50 [1]: 0.96 µM
IC (TGI) [1]: 2.45 µM
IC (TGI) (Renal Cancer subpanel): 2.93 µM
GI50 (Renal Cancer subpanel): 1.46 µM
CC50 (Renal Cancer subpanel): 5.76 µM
IC (TGI) (NSC lung cancer subpanel): 3.15 µM
GI50 (NSC lung cancer subpanel): 1.52 µM
CC50 (NSC lung cancer subpanel): 6.41 µM
GI50 (RPMI-8226 (Leukemia)): 0.24 µM
IC (TGI) (RPMI-8226 (Leukemia)): 0.63 µM
GI50 (IGROV1 (Ovarian cancer)): 1.83 µM
IC (TGI) (IGROV1 (Ovarian cancer)): 3.61 µM
GI50 (SK-OV-3 (Ovarian cancer)): 1.73 µM
IC (TGI) (SK-OV-3 (Ovarian cancer)): 3.23 µM
GI50 [2]: 1.75 µM
IC (TGI) [2]: 3.35 µM
CC50 ([2]; NCI-H522, read-out: LC50): 6.4 µM
GI50 (UO-31 (Renal cancer)): 1.5 µM
IC (TGI) (UO-31 (Renal cancer)): 2.96 µM
GI50 (CAKI-1 (Renal cancer)): 1.49 µM
IC (TGI) (CAKI-1 (Renal cancer)): 2.89 µM
CC50 (CAKI-1 (Renal cancer)): 5.6 µM
EC50 [3]: 1.02 ± 0.03 µM
EC50 [4]: 1 ± 0.1 µM
EC50 [5]: 0.88 ± 0.1 µM
EC50 [6]: 0.78 ± 0.4 µM
GI50 (UACC-62 (Melanoma)): 1.76 µM
IC (TGI) (UACC-62 (Melanoma)): 3.39 µM
CC50 (UACC-62 (Melanoma)): 6.52 µM
GI50 (RXF 393 (Renal cancer)): 1.67 µM
IC (TGI) (RXF 393 (Renal cancer)): 3.27 µM

Reference: paper PMC7914897, “Cytotoxic Potential of a-Azepano- and 3-Amino-3,4-SeCo-Triterpenoids” (International Journal of Molecular Sciences, 2021)
